According to patent US10646469B2, “Substituted indole derivatives as dengue viral replication inhibitors” (Janssen Pharmaceuticals, Inc., priority 2016, dated 2020):

Tests used:
DENV-4 strain H241 = experiment: Tetravalent RT-qPCR assay, serotype 4; format: cell-based; details: Dengue virus, DENV4, 72 h; RT-qPCR serotype 4 H241, Protocol A, Vero cells, day 3
Method: (§1) The antiviral activity of the compounds of the invention was tested against DENV-1 strain TC974 #666 (NCPV), DENV-2 strain 16681, DENV-3 strain H87 (NCPV) and DENV-4 strain H241 (NCPV) in a RT-qPCR assay. Therefore, Vero cells were infected with either DENV-1, or -2, or -3, or -4 in the presence or absence of test compounds. At day 3 post-infection, the cells were lysed and cell lysates were used to prepare cDNA of both a viral target (the 3′UTR of DENV; Table 2) and cellular reference gene (β-actin, Table 2). Subsequently, a duplex real time PCR was performed on a Lightcycler480 instrument. The generated Cp value is inversely proportional to the amount of RNA expression of these targets. Inhibition of DENV replication by a test compound results in a shift of Cp's for the 3′UTR gene. On the other hand, if a test compound is toxic to the cells, a similar effect on β-actin expression will be observed. The comparative ΔΔCp method is used to calculate EC50, which is based on the relative gene expression of the target gene (3′UTR) normalized with the cellular housekeeping gene (β-actin). In addition, CC50 values are determined based on the Cp values acquired for the housekeeping gene β-actin.
(§2) The culture medium consisted of minimal essential medium supplemented with 2% of heat-inactivated fetal calf serum, 0.04% gentamycin (50 mg/mL) and 2 mM of L-glutamine. Vero cells, obtained from ECACC, were suspended in culture medium and 75 μL/well was added in 96-well plates (10000 cells/well), which already contain the antiviral compounds. […] In addition, each plate contains wells which are assigned as virus controls (containing cells and virus in the absence of compound) and cell controls (containing cells in the absence of virus and compound). Once the cells were added in the plates, the plates were incubated in a fully humidified incubator (37° C., 5% CO2) until the next day. Dengue viruses serotype-1, 2, 3 and 4 were diluted in order to obtain a Cp of ˜22-24 in the assay. Therefore, 25 μL of virus suspension was added to all the wells containing test compound and to the wells assigned as virus control. In parallel, 25 μL of culture medium was added to the cell controls. Next, the plates were incubated for 3 days in a fully humidified incubator (37° C., 5% CO2). After 3 days, the supernatant was removed from the wells and the cells were washed twice with ice-cold PBS (˜100 μL). The cell pellets within the 96-well plates were stored at −80° C. for at least 1 day. Next, RNA was extracted using the Cells-to-CT™ lysis kit, according to the manufacturer's guideline (Life Technologies). The cell lysates can be stored at −80° C. or immediately used in the reverse transcription step.
(§3) In preparation of the reverse transcription step, mix A (table 3A) was prepared and 7.57 μL/well was dispensed in a 96-well plate. After addition of 5 μL of the cell lysates, a five minute denaturation step at 75° C. was performed (table 3B). Afterwards, 7.43 μL of mix B was added (table 3C) and the reverse transcription step was initiated (table 3D) to generate cDNA.
(§4) Finally, a RT-qPCR mix was prepared, mix C (table 4A), and 22.02 μL/well was dispensed in 96-well LightCycler qPCR plates to which 3 μL of cDNA was added and the qPCR was performed according to the conditions in table 4B on a LightCycler 480.
(§5) Using the LightCycler software and an in-house LIMS system, dose response curves for each compound were calculated and the half maximal effective concentration (EC50) and the half maximal cytotoxic concentration (CC50) were determined (Tables 5-8).

DENV-2 strain 16681 = experiment: Tetravalent RT-qPCR assay, serotype 2; format: cell-based; details: Dengue virus, DENV2, 72 h; RT-qPCR serotype 2 16681, Protocol A, Vero cells, day 3
Method: as §1, §2, §3, §4, §5

[1] = Cytotoxicity in RT-qPCR assay (Cp of housekeeping gene β-actin); format: cell-based; details: African green monkey
Method: as §1, §2, §5

DENV-2 16681 strain = experiment: DENV-2 antiviral assay (eGFP-labeled virus in Vero cells); format: cell-based, Dengue virus; details: DENV-2 16681 eGFP, MOI 0.5, 3 days
Outline: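 Vero cells (2500/well) pre-plated with compound (9-step 5-fold series), infected next day with eGFP-labeled DENV-2 16681 at MOI 0.5 in MEM with 2% FCS; 3 days at 37° C. eGFP fluorescence read at 488 nm; inhibition versus virus and cell controls, EC50 by linear interpolation.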

DENV-3 strain H87 = experiment: Tetravalent RT-qPCR assay, serotype 3; format: cell-based; details: Dengue virus, DENV3, 72 h; RT-qPCR serotype 3 H87, Protocol A, Vero cells, day 3
Method: as §1, §2, §3, §4, §5

DENV-1 strain TC974 #666 = experiment: Tetravalent RT-qPCR assay, serotype 1; format: cell-based; details: Dengue virus, DENV1, 72 h; RT-qPCR serotype 1 TC974#666, Protocol A, Vero cells, day 3
Method: as §1, §2, §3, §4, §5

[2] = Toxicity on the same plates (ATPlite cell viability); details: African green monkey, CC50, Vero cells, same plates as DENV-2 antiviral assay
Vero cells = experiment: as above; details: Vero cells, same plates as DENV-2 antiviral assay
[3] = RT-qPCR serotype 1 TC974#666, Protocol A
[4] = RT-qPCR serotype 2 16681, Protocol A
[5] = RT-qPCR serotype 3 H87, Protocol A
[6] = RT-qPCR serotype 4 H241, Protocol A

SMILES | EC50 (DENV-4 strain H241) [nM] | EC50 (DENV-2 strain 16681) [nM] | CC50 at 3 days [1, 3] [nM] | CC50 at 3 days [1, 4] [nM] | CC50 at 3 days [1, 5] [nM] | CC50 at 3 days [1, 6] [nM] | EC50 (DENV-2 16681 strain) [nM] | EC50 (DENV-3 strain H87) [nM] | EC50 (DENV-1 strain TC974 #666) [nM] | CC50 [2] [nM] | CC50 (Vero cells) [nM] | melting point [°C] | EC50 (DENV-2 16681 strain; Dengue virus, DENV2, Vero, 72 h) [nM]
COc1cc(NC(C(=O)c2c[nH]c3c(C)cc(OC(F)(F)F)cc23)c2ccc(Cl)cc2OC)cc(OCCO)c1 (single isomer, unassigned) [Compound 16A, 2-(4-chloro-2-methoxyphenyl)-2-((3-(2-hydroxyethoxy)-5-methoxyphenyl)amino)-1-(7-methyl-5-(trifluoromethoxy)-1H-indol-3-yl)ethanone] | 17 | 0.15 | > 2500 | > 2500 | > 2500 | > 2000 | 0.098 | 1.7 | 0.63 | 2400 | – | – | –
COc1cc(NC(C(=O)c2c[nH]c3cc(F)c(C(F)(F)F)cc23)c2ccc(F)cc2OC)cc(OCCO)c1 (single isomer, unassigned) [Compound 3A, 2-(4-fluoro-2-methoxyphenyl)-1-(6-fluoro-5-(trifluoromethyl)-1H-indol-3-yl)-2-((3-(2-hydroxyethoxy)-5-methoxyphenyl)amino)ethanone] | 62 | 0.46 | > 2500 | 2600 | > 2500 | > 2500 | 0.47 | 18 | 2.1 | – | 2400 | – | –
COc1cc(NC(C(=O)c2c[nH]c3cc(F)c(C(F)(F)F)cc23)c2ccc(Cl)cc2OC)cc(OCCO)c1 (single isomer, unassigned) [Compound 11A, 2-(4-chloro-2-methoxyphenyl)-1-(6-fluoro-5-(trifluoromethyl)-1H-indol-3-yl)-2-((3-(2-hydroxyethoxy)-5-methoxyphenyl)amino)ethanone] | 39 | 0.24 | > 2500 | > 2500 | > 2500 | 1900 | 0.33 | 5.7 | 0.69 | 2500 | – | – | –
COc1cc(NC(C(=O)c2c[nH]c3ccc(C(F)(F)F)cc23)c2ccc(F)cc2OC)cc(OCCO)c1 (racemic) [Compound 1, 2-(4-fluoro-2-methoxyphenyl)-2-((3-(2-hydroxyethoxy)-5-methoxyphenyl)amino)-1-(5-(trifluoromethyl)-1H-indol-3-yl)ethanone] | – | – | – | – | – | – | – | – | – | 5500 | – | 132 | 1.2
COc1cc(NC(C(=O)c2c[nH]c3cc(OC)c(OC(F)(F)F)cc23)c2ccc(F)cc2OC)cc(OCCO)c1 (single isomer, unassigned) [Compound 6A, 2-(4-fluoro-2-methoxyphenyl)-2-((3-(2-hydroxyethoxy)-5-methoxyphenyl)amino)-1-(6-methoxy-5-(trifluoromethoxy)-1H-indol-3-yl)ethanone] | 78 | 0.55 | > 2100 | 3900 | > 2500 | 1500 | 0.33 | 12 | 2.6 | – | > 2500 | – | –
COc1cc(NC(C(=O)c2c[nH]c3c(C)cc(C(F)(F)F)cc23)c2ccc(F)cc2OC)cc(OCCO)c1 (single isomer, unassigned) [Compound 4B, 2-(4-fluoro-2-methoxyphenyl)-2-((3-(2-hydroxyethoxy)-5-methoxyphenyl)amino)-1-(7-methyl-5-(trifluoromethyl)-1H-indol-3-yl)ethanone] | 51 | 0.36 | > 2500 | > 2400 | > 2500 | > 2100 | 0.46 | 9.2 | 1.4 | – | 2500 | – | –
COc1cc(NC(C(=O)c2c[nH]c3ccc(OC(F)(F)F)cc23)c2ccc(F)cc2OC)cc(OCCO)c1 (single isomer, unassigned) [Compound 5B, 2-(4-fluoro-2-methoxyphenyl)-2-((3-(2-hydroxyethoxy)-5-methoxyphenyl)amino)-1-(5-(trifluoromethoxy)-1H-indol-3-yl)ethanone] | 50 | 0.36 | > 2500 | 3200 | > 2500 | 2400 | 0.3 | 6 | 0.77 | – | 3300 | – | –
COc1cc(NC(C(=O)c2c[nH]c3cc(OC)c(C(F)(F)F)cc23)c2ccc(F)cc2OC)cc(OCCO)c1 (single isomer, unassigned) [Compound 2A, 2-(4-fluoro-2-methoxyphenyl)-2-((3-(2-hydroxyethoxy)-5-methoxyphenyl)amino)-1-(6-methoxy-5-(trifluoromethyl)-1H-indol-3-yl)ethanone] | 62 | 0.25 | > 2500 | 3200 | > 1900 | > 2100 | 0.45 | 19 | 2.2 | 3500 | – | – | –
COc1cc(NC(C(=O)c2c[nH]c3cc(F)c(OC(F)(F)F)cc23)c2ccc(F)cc2OC)cc(OCCO)c1 (single isomer, unassigned) [Compound 7B, 2-(4-fluoro-2-methoxyphenyl)-1-(6-fluoro-5-(trifluoromethoxy)-1H-indol-3-yl)-2-((3-(2-hydroxyethoxy)-5-methoxyphenyl)amino)ethanone] | 52 | 0.55 | > 2500 | > 2500 | > 2500 | 2100 | 0.53 | 8.2 | 1.2 | – | 2400 | – | –
COc1cc(NC(C(=O)c2c[nH]c3cc(OC)c(OC(F)(F)F)cc23)c2ccc(Cl)cc2OC)cc(OCCO)c1 (single isomer, unassigned) [Compound 14A, 2-(4-chloro-2-methoxyphenyl)-2-((3-(2-hydroxyethoxy)-5-methoxyphenyl)amino)-1-(6-methoxy-5-(trifluoromethoxy)-1H-indol-3-yl)ethanone] | 25 | 0.17 | > 2100 | 3800 | > 2300 | 1600 | 0.17 | 5.1 | 0.92 | – | 2500 | – | –
